In one experiment the target is CYP17 (Rattus norvegicus (Rat), UniProt P11715). Nature of the experiment: CYP17 metalloenzyme activity, rat testicular microsomes. In kind it is biochemical. The following applies: pooled rat testicular microsomes. The method, then:
CYP17 activity was assayed according to the following procedure.

For the next experiment, the target named is CYP3A4 (Homo sapiens (Human), UniProt P08684). Nature of the experiment: Inhibition of liver cytochrome P450 enzymes, pooled human liver microsomes.
A further experiment deals with CYP2C19 (Homo sapiens (Human), UniProt P33261). The experiment in a line: biochemical.
Another experiment addresses CYP2C9 (Homo sapiens (Human), UniProt P11712). Nature of the experiment: biochemical.

Sequence of CYP2C19 (P33261 whole entry): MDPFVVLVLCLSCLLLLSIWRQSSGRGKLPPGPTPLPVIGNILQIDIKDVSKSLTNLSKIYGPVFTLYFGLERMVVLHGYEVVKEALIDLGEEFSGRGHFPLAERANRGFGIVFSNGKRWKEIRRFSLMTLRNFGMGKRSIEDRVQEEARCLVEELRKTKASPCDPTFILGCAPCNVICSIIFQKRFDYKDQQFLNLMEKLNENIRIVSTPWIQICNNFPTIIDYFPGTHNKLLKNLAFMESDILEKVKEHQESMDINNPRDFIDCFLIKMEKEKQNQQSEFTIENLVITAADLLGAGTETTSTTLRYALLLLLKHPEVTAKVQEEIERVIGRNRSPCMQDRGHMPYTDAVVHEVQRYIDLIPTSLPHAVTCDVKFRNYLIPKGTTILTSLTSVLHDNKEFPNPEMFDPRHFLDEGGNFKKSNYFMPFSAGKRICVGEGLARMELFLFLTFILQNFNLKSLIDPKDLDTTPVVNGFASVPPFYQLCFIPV
Sequence of CYP3A4 (P08684 whole entry): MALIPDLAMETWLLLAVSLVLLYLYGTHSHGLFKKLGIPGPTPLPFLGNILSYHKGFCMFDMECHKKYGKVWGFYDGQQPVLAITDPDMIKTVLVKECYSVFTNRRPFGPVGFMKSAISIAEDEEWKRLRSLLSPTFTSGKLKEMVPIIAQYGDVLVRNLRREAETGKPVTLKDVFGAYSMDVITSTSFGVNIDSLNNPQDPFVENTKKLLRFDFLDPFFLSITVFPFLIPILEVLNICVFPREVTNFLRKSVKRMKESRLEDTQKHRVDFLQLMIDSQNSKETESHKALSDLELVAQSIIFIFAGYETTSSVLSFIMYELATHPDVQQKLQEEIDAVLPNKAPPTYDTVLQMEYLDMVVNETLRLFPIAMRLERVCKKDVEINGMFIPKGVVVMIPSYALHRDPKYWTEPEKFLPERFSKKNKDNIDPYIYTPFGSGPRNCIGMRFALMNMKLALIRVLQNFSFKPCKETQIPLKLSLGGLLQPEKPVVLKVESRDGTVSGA
Sequence of CYP2C9 (P11712 whole entry): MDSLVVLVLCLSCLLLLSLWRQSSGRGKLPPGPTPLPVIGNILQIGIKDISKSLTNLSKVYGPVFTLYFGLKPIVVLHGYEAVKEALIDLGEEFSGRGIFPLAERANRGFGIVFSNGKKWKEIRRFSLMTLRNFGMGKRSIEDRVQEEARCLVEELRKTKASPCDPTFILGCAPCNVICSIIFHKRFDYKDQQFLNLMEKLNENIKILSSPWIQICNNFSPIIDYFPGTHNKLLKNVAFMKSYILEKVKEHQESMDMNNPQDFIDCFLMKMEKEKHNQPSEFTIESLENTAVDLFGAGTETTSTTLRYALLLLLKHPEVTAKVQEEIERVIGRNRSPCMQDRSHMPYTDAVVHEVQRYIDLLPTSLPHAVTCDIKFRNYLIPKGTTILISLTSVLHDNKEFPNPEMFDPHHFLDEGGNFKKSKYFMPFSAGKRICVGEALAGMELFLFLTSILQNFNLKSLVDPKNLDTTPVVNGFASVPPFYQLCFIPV
Sequence of CYP17 (P11715 whole entry): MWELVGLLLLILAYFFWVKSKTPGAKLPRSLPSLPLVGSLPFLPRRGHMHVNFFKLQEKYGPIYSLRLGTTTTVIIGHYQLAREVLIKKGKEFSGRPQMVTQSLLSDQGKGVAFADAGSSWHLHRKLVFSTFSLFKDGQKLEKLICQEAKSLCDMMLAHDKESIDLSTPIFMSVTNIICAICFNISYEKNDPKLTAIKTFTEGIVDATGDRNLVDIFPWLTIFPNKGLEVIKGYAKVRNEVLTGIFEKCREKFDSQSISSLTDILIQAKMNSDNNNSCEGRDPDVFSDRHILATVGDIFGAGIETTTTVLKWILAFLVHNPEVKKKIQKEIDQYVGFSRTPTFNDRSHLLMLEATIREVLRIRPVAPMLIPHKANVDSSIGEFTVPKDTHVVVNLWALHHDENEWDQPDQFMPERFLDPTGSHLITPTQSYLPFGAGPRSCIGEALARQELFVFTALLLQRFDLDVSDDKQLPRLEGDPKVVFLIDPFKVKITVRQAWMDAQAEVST

In the case of `COc1cc2ccc(C(O)(c3cncs3)C(C)C)cc2cc1OC` (stereo not shown) [Example 2, 1-(6,7-dimethoxynaphthalen-2-yl)-2-methyl-1-(thiazol-5-yl)propan-1-ol], the IC50 against CYP17 is 290 nM; against CYP3A4 it was 770 nM; against CYP2C19 it was 3000 nM; on CYP2C9 it was 33000 nM.

The values above are taken from patent US9150527B2, “Metalloenzyme inhibitor compounds” (Innocrin Pharmaceuticals, Inc., priority 2011, dated 2015).
